Measured values from patent US7507813B2, “Amorphous cefuroxime axetil and preparation process therefore” (Nanomaterials Technology Pte Ltd., priority 2004, dated 2009).

test: Particle size of the cefuroxime axetil particles (SEM images); assay type: physicochemical; conditions: amorphous particles from antisolvent precipitation

Compound	average particle size
CO/N=C(\C(=O)N[C@@H]1C(=O)N2C(C(=O)OC(C)OC(C)=O)=C(COC(N)=O)CS[C@H]12)c1ccco1 (some centres unmarked) [Example 2, cefuroxime axetil]	about 600 nm
CO/N=C(\C(=O)N[C@@H]1C(=O)N2C(C(=O)OC(C)OC(C)=O)=C(COC(N)=O)CS[C@H]12)c1ccco1 (some centres unmarked) [Example 7, cefuroxime axetil]	about 500 nm
CO/N=C(\C(=O)N[C@@H]1C(=O)N2C(C(=O)OC(C)OC(C)=O)=C(COC(N)=O)CS[C@H]12)c1ccco1 (some centres unmarked) [Example 11, cefuroxime axetil]	about 1 μm
CO/N=C(\C(=O)N[C@@H]1C(=O)N2C(C(=O)OC(C)OC(C)=O)=C(COC(N)=O)CS[C@H]12)c1ccco1 (some centres unmarked) [Example 8, cefuroxime axetil]	about 2 μm
CO/N=C(\C(=O)N[C@@H]1C(=O)N2C(C(=O)OC(C)OC(C)=O)=C(COC(N)=O)CS[C@H]12)c1ccco1 (some centres unmarked) [Example 3, cefuroxime axetil]	about 1 μm
CO/N=C(\C(=O)N[C@@H]1C(=O)N2C(C(=O)OC(C)OC(C)=O)=C(COC(N)=O)CS[C@H]12)c1ccco1 (some centres unmarked) [Example 5, cefuroxime axetil]	about 200 nm
CO/N=C(\C(=O)N[C@@H]1C(=O)N2C(C(=O)OC(C)OC(C)=O)=C(COC(N)=O)CS[C@H]12)c1ccco1 (some centres unmarked) [Example 10, cefuroxime axetil]	about 600 nm
CO/N=C(\C(=O)N[C@@H]1C(=O)N2C(C(=O)OC(C)OC(C)=O)=C(COC(N)=O)CS[C@H]12)c1ccco1 (some centres unmarked) [Example 4, cefuroxime axetil]	about 400 nm
CO/N=C(\C(=O)N[C@@H]1C(=O)N2C(C(=O)OC(C)OC(C)=O)=C(COC(N)=O)CS[C@H]12)c1ccco1 (some centres unmarked) [Example 9, cefuroxime axetil]	about 500 nm
CO/N=C(\C(=O)N[C@@H]1C(=O)N2C(C(=O)OC(C)OC(C)=O)=C(COC(N)=O)CS[C@H]12)c1ccco1 (some centres unmarked) [Example 1, cefuroxime axetil]	about 500 nm
CO/N=C(\C(=O)N[C@@H]1C(=O)N2C(C(=O)OC(C)OC(C)=O)=C(COC(N)=O)CS[C@H]12)c1ccco1 (some centres unmarked) [Example 6, cefuroxime axetil]	about 1 μm
